Experimental data taken from patent publication US11369609B2, “Small molecule Wnt inhibitor as treatment for dyslipidemia” (Yale University, priority 2019, dated 2022).
Entries after “also recorded” stand apart in the source; their conditions may differ.

Columns and labels:
kidney endothelial cells = assay: Fatty acid uptake in isolated kidney endothelial cells; type: in vivo; conditions: diabetic mice, radiolabeled [14C]palmitate uptake
Method: Endothelial cells from the kidneys of non-diabetic and diabetic mice were isolated using a standardized kit (Miltenyl Biotech, USA) by following the manufacturer's instructions. Briefly, kidneys were isolated and minced into small pieces. Using a series of enzymatic reactions by treating the tissue with trypsin and Collagenase type I solution, a single cell suspension was created. The pellet was dissolved with CD31 magnetic beads and the CD31-labelled cells were separated on a magnetic separator. The cells were further purified on a column. Cell number was counted by hemocytometer and cells were plated on 0.1% gelatin coated Petri dishes.
Cultured isolated kidney endothelial cells were incubated with medium containing 2 μCi [^14C]palmitate. [^14C]-palmitate uptake was measured by liquid scintillation counting.
It is increasingly recognized that defects in central metabolism contribute to kidney fibrosis (69, 76). Defective FA metabolism in EC leads to EndMT events (77). To investigate whether FA metabolism was deranged in the model, radiolabeled [^14C]palmitate uptake experiments were performed in isolated EC from mouse kidneys. […] FA oxidation (FAO) was also assessed by measuring the ^14CO2 release from radiolabeled [^14C]palmitate in cultured EC isolated from kidneys. […]

canonical Wnt signaling = assay: Atherosclerosis in high fat diet-fed Apoe−/− and DKO TCF/Lef-LacZ mice; type: in vivo
Source text: Apoe −/− and endothelial GR KO/Apo E KO double knockout (DKO) mice were fed a high fat diet containing 1.25% cholesterol (Research Diets) for the time indicated. In some experiments, animals of both genotype were bred to the BAT-GAL (ß-catenin/TCF/LEF) reporter transgenic mouse. Mice were sacrificed and the aortas removed. Aortas were stained with X-galactosidase (Sigma-Aldrich) according to the manufacturer's instructions. In other aortas, total RNA was extracted and cDNA was made as described above. The custom PCR array was used to evaluate pathways of interest as described. All studies were performed according to a protocol approved by the Institutional Care and use Committee at Yale University School of Medicine and were consistent with the National Institutes of Health Guidelines for the Care of Laboratory Animals.
Mice were fasted for 12-15 hours and blood was collected by retro-orbital venous puncture. Whole blood was spun down and plasma stored at −80° C. Total cholesterol and triglyceride levels were measured enzymatically by kits from Wako and Sigma, respectively, according to the manufacturer's instructions.
At the completion of high-fat diet feeding mice were anesthetized and euthanized. Mouse hearts were perfused with PBS and then 4% paraformaldehyde (PFA) and the aortas and were dissected out using a dissecting microscope and maintained in PFA overnight. Whole aortas were stained with Oil Red O (Sigma) to quantify lesion area. Oil Red O stock solution (35 ml, 0.2% weight/volume in methanol) was mixed with 10 ml 1 M NaOH and filtered. Aortas were briefly rinsed in 78% methanol, incubated in Oil Red O for 45 minutes and then destained in 78% methanol for 5 minutes and mounted on microscopic slides. Lipid staining and lesion size were quantified by averaging six sections from the same mouse using the IMAGE J program.
In order to visualize the activation of canonical Wnt signaling, Apoe^−/−, GR^fl/fl, Tie2 Cre−; TCF/Lef-LacZ (Apoe^−/−) mice were bred with Apoe^−/−, GR^fl/fl, Tie2 Cre+; TCF/Lef-LacZ (DKO) mice. Apoe^−/− and DKO mice were fed a high fat diet (HFD) for 12 weeks. The Wnt inhibitor (wnti) LGK974 at a dose of 5 mg/kg body weight, or vehicle, was administered 6 days/week by oral gavage from 4-12 weeks. The aortas of vehicle-treated control animals and wnti-treated animals (n=6-7/group) were stained for LacZ (FIG. 11B). A LacZ(−) aorta was included as a control. […] Aortic area stained is quantified in the corresponding graph (FIG. 11B). Body weight of the animals of both genotypes with and without Wnti treatment was measured. […] Triglycerides, total cholesterol and HDL cholesterol were measured after 12 weeks of diet feeding in animals of both genotypes in the presence of absence of Wnti. […] Lipid deposition in aortas of wnti- or vehicle-treated Apoe^−/− and DKO treated mice was analyzed by Oil Red O staining. Atherogenic lesion area was calculated by using the Image J program. […] Masson Trichrome and H&E staining was performed in the brachiocephalic artery of Wnti- or sham-treated Apoe^−/− and DKO treated mice (FIG. 11F). Lesion size was measured using Image J program.

[1] = 5 mg/kg oral gavage 6 days/week, weeks 4-12 of HFD, both genotypes

Compound: Cc1cc(-c2ncc(CC(=O)Nc3ccc(-c4cnccn4)cn3)cc2C)ccn1 [LGK974]
- FA uptake in isolated kidney EC (kidney endothelial cells): suppressed FA uptake
- atherosclerosis prognosis / atherogenic phenotype (canonical Wnt signaling; 5 mg/kg oral gavage 6 days/week, weeks 4-12 of HFD): significantly improves the atherogenic phenotype; also recorded: surprising improvement in atherosclerosis prognosis
- activation of canonical Wnt signaling (LacZ staining in aortas) (canonical Wnt signaling; [1]): clearly attenuated
- body weight (canonical Wnt signaling; [1]): no weight loss
- lesion size in brachiocephalic arteries (canonical Wnt signaling; Masson Trichrome and H&E staining): dramatically reduced lesion size
- cholesterol (canonical Wnt signaling; after 12 weeks of HFD, both genotypes): dramatic reduction in cholesterol; also recorded: enormous
- lipid deposition in aortas (Oil Red O staining) (canonical Wnt signaling; both genotypes): dramatic reduction in lipid deposition
- decrease in cholesterol levels (canonical Wnt signaling; in vivo use in atherogenic mouse model): about 50%
- H&E and Oil Red O staining in the aortic root of heart sections (canonical Wnt signaling; mouse, in vivo): histological improvement
